# Laboratory results taken from patent US10912741B2, “Prevention of liver cancer with safranal-based formulations” (United Arab Emirates University, priority 2019, dated 2021).
# What was measured:
# [1] = tested on: foci of altered hepatocytes (FAH); experiment: Histopathology (H&E) of liver, foci of altered hepatocytes; format: in vivo, albino Wistar rats
# Method: (§1) The experimental hepatocarcinogenesis model was developed according to a protocol by Espandiaria et al. that was adapted for our purposes. To initiate and promote hepatocarcinogenesis, diethylnitrosamine (DEN) and 2-acetylaminofluorene (2-AAF) were used, respectively. For hepatocarcinogenesis initiation in this model, a single DEN dose (200 mg/kg b.wt.) dissolved in saline was injected intraperitoneally. After initiation, all rats underwent one period of 5-days fasting, as mitotic proliferative stimuli. To promote hepatocarcinogenesis, 2-acetylaminofluorene (2-AAF) was introduced in the form of six daily intragastric doses (30 mg/kg in 1% Tween 80); two weeks after DEN treatment.
# Safranal at doses of 25 mg/kg by weight (b.wt.) and 50 mg/kg b.wt, was administrated orally to rats. These doses have been reported to suppress chemically-induced oxidative damage in rats. A total of 40 adult male albino Wistar rats were randomly divided into […] (n=8) and were subjected to different treatments. Group 1 (control) was orally administered distilled water (5 ml/kg b.wt.) throughout the experimental duration and were injected with a single dose of saline. Group 2 (Safranal only) was subjected to a safranal dose (50 mg/kg b.wt.) through oral administration for the duration of the experimental period. […]
# [2] = tested on: DNA fragmentation (TUNEL-positive cells); experiment: TUNEL assay of liver sections (apoptosis); format: in vivo, albino Wistar rats
# Method: as §1
# Safranal at doses of 25 mg/kg by weight (b.wt.) and 50 mg/kg b.wt, was administrated orally to rats. These doses have been reported to suppress chemically-induced oxidative damage in rats. A total of 40 adult male albino Wistar rats were randomly divided into […] (n=8) and were subjected to different treatments. Group 1 (control) was orally administered distilled water (5 ml/kg b.wt.) throughout the experimental duration and were injected with a single dose of saline. […]
# TUNEL assay was performed for the purpose of assessing apoptosis. […] DNA fragmentation, a key indicator of apoptosis, is detected using this kit. […]
# [3] = tested on: NF-kB-p65 nuclear localization; experiment: NF-kB-p65 nuclear localization in nuclear extracts; format: in vivo, albino Wistar rats; conditions: animal groups pre-treated with safranal (DEN-exposed)
# Text: DEN, 2-AAF, 5, 5′-dithiobis-(2-nitrobenzoic acid thiobarbituric acid, Folin's reagent, pyrogallol, SOD enzyme, H2O2, and bovine albumin were obtained from Sigma Chemical Co. (St. Louis, Mo.). Nf-kB nuclear localization assay kit was purchased from (Ser. No. 10/007,889, Cayman Chemical Company, Ann Arbor, Mich., USA).
# as §1
# Safranal at doses of 25 mg/kg by weight (b.wt.) and 50 mg/kg b.wt, was administrated orally to rats. These doses have been reported to suppress chemically-induced oxidative damage in rats. A total of 40 adult male albino Wistar rats were randomly divided into […] (n=8) and were subjected to different treatments. […]
# [4] = tested on: caspase-3 and -7 in HepG2 cells; experiment: Caspase-3 and -7 assay (Caspase-Glo 3/7); format: cell-based, human; conditions: 1 mM, 48 hours
# Method: (§2) HepG2, were cultured in RPMI 1640 medium (HyClone, USA) and 1% of 100 U/ml penicillin and 100 ug/ml streptomycin (Sigma, USA) supplemented with 10% fetal bovine serum (Sigma, USA) at 37° C. in a humidified 5% CO2 atmosphere. Cells were sub-cultured each 4-6 days using trypsin 0.25% (Hyclone, USA).
# HepG2 cells were seeded in 96-well plates at the density of 10000 cells/well and grown in 100 uL of complete growth medium. Complete growth medium was replaced by serum-free medium after cells were allowed to attach for 24 hours; after which cells were incubated for at least 12 hours. Cells were incubated for 48 hours after treatment with various concentrations of safranal (1 mM, 0.7 mM, 0.5 mM) prepared from 20 mM stock solution. After incubation period, caspase-3 and -7 activities were measured using Caspase-Glo 3/7 luminescent assay kit according to manufacturer's instruction (Promega, USA).
# [5] = tested on: IL-8 secretion by HepG2 cells; experiment: IL-8 ELISA of supernatant of safranal-treated cells; format: cell-based, human; conditions: as early as 6 hrs
# Method: as §2
# (§3) In 100 mm plates, HepG2 cells were seeded at a density of 2×10^4 in complete growth medium. Cells were allowed to attach for 24 hours, after which complete growth medium was replaced by serum-free medium. Cells were treated with safranal at a concentration of 1 mM (20 mM stock). Plates were incubated for 6, 12, 24, and 48 hours in a humidified 5% CO2 atmosphere at 37° C. At indicated times, 1 mL of cell supernatant was obtained from each plate and was stored at −80° C. for further analysis by ELISA. After which whole cell lysates were prepared. Bicinchoninic acid (BCA) assay (Sigma-Aldrich, USA) was used to determine concentration of protein. Thirty μg of protein were loaded onto 10% SDS polyacrylamide electrophoresis gels. […]
# Supernatant of safranal-treated cells were used to investigate the effect of safranal on IL-8 secretion level. […] Absorbance was recorded at 450 nm with background subtraction at 570 nm using a microplate reader (Biotek, Winooski, Vt., USA).
# p-H2AX in HepG2 cells = experiment: Western blotting, p-H2AX; format: cell-based, human; conditions: 24 hours of safranal treatment (1 mM)
# Method: as §2
# as §3, with “gels. The gels were transferred onto nitrocellulose membranes prior to immunodetection processing with anti-p-IkB-alpha, anti-H2AX (Cell Signaling Technology, USA), and with anti-rabbit IgG peroxidase conjugated secondary antibodies.” for “gels.”
smiles,measurement,setting,value
"CC1=C(C=O)C(C)(C)CC=C1 [Safranal, 2,6,6-trimethylcyclohexa-1,3-diene-1-carbaldehyde]",number and size of hepatocellular nodules (FAH),"[1]; protective groups, DEN-2-AAF rats + low/high doses of safranal (25/50 mg/kg b.wt.)",remarkably decrease in number and size
same,hepatocellular nodules (FAH) in liver sections,"[1]; treatment with safranal alone (group 2, 50 mg/kg b.wt.)",abolished such hepatocellular nodules almost completely
same,number of TUNEL-positive cells,"[2]; low/high doses of safranal in animals exposed to DEN, compared to group 3",significant increase in the number of both TUNEL- and M30 CytoDeath-positive cells
same,number of TUNEL-positive cells,"[2]; safranal only (group 2), compared to control group",did not exhibit a notable change
same,NF-kB-p65 level in nuclear extracts,[3],parallel decrease in NF-kB-p65 level in nuclear extracts
same,caspase-3 and -7 activities,[4],significant increase in caspase-3 and -7 activities
same,IL-8 secretion,[5],dramatic decrease in IL-8 secretion
same,protein level of p-H2AX,p-H2AX in HepG2 cells,remarkable induction of p-H2AX
